Key:
[1] = target: Poly [ADP-ribose] polymerase 2 (Homo sapiens, UniProt Q9UGN5); assay: Inhibition of human recombinant N-terminal GST-tagged PARP2 (2 to 583 residues) expressed in baculovirus infected Sf9 cells assessed as reduction in auto-PARylation using histone as substrate measured after 45 mins in presence of biotinylated-NAD+ by ELISA
[2] = Cmax in Sprague-Dawley rat at 3 mg/kg, po; assay type: ADME, organism-based; set-up: dose 3 mg/kg, route oral; details: in vivo
[3] = Oral bioavailability in Sprague-Dawley rat at 3 mg/kg; assay type: ADME, organism-based; details: in vivo
[4] = Tmax in Sprague-Dawley rat at 3 mg/kg, po; assay type: ADME, organism-based; details: in vivo
[5] = target: Poly [ADP-ribose] polymerase 1 (Homo sapiens, UniProt P09874)
Description: Inhibition of recombinant human PARP1 expressed in Escherichia coli assessed as reduction in auto-PARylation using histone as substrate measured after 45 mins in presence of biotinylated-NAD+ by ELISA

[6] = Initial plasma concentration in Sprague-Dawley rat at 1 mg/kg, iv; assay type: ADME, organism-based
[7] = Volume of distribution at steady state in Sprague-Dawley rat at 1 mg/kg, iv; assay type: ADME, organism-based; details: in vivo, read-out: Vdss
[8] = target: Beta-1 adrenergic receptor (Homo sapiens) (UniProt P08588); assay: Displacement of [125I]cyanopindolol from full-length recombinant human beta1 receptor expressed in CHOK1 cells at 10 uM measured after 120 mins by scintillation counting method relative to control; assay type: cell-based
[9] = Total clearance in Sprague-Dawley rat at 1 mg/kg, iv; assay type: ADME, organism-based; details: in vivo
[10] = target: Prostaglandin G/H synthase 1 (Homo sapiens) (UniProt P23219); assay: Inhibition of human recombinant COX1 expressed in baculovirus infected Sf9 cells at 10 uM using arachidonic acid as substrate preincubated for 15 mins followed by substrate addition and measured after 3 mins by ampliflu red dye-based spectrofluorimetric method relative to control
[11] = AUC (infinity) in Sprague-Dawley rat at 3 mg/kg, po; assay type: ADME, organism-based; set-up: dose 3 mg/kg, time infinity, route oral; details: in vivo
[12] = target: T1, Protein mono-ADP-ribosyltransferase PARP10 (Homo sapiens, UniProt Q53GL7); assay: Inhibition of human recombinant N-terminal TEV-cleavgae site-fused-FLAG/Polyhis-tagged PARP10 […] expressed in Escherichia coli assessed as reduction in auto-PARylation using histone as substrate measured after 45 mins in presence of biotinylated-NAD+ by ELISA
T1 sequence (Q53GL7 whole entry): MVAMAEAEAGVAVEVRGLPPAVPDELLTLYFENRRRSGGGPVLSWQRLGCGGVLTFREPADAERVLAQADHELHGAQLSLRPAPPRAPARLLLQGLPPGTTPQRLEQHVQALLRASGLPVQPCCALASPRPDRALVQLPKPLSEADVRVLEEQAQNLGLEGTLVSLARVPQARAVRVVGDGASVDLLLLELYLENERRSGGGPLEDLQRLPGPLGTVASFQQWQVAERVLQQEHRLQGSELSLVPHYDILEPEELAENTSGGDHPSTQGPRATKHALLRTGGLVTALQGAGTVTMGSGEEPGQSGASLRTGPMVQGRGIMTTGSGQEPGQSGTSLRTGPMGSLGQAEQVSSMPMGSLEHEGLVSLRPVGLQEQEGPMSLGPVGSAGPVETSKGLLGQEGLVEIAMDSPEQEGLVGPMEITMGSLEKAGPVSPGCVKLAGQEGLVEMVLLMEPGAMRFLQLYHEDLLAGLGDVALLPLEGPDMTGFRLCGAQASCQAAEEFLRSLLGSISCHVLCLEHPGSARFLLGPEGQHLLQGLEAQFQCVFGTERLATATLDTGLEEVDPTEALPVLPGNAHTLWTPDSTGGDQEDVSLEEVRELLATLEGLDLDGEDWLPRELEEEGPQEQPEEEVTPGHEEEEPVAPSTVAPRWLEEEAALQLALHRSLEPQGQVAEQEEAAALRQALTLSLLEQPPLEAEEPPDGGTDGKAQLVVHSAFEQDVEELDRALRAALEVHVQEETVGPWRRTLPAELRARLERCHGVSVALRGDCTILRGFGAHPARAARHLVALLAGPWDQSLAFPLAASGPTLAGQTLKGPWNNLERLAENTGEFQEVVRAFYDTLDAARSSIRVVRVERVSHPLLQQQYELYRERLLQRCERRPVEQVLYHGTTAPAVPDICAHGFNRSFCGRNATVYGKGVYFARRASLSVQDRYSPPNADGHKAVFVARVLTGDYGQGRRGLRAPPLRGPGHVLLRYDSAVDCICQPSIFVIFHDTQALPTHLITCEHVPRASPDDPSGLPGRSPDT

[13] = Protein binding in mouse serum assessed as unbound fraction at 1 uM measured after 24 hrs by LC-MS/MS analysis; assay type: ADME, cell-free
in vitro [14] = details: mouse, liver microsomes
Description: Stability in mouse liver microsomes assessed as parent compound remaining at 1 uM measured after 30 mins in presence of NADPH by LC-MS/MS analysis

[15] = Half life in Sprague-Dawley rat at 1 mg/kg, iv; assay type: ADME, organism-based; details: in vivo
Rattus norvegicus = species: Rattus norvegicus; assay: Displacement of [125I]a-dendrotoxin from voltage-gated potassium channel in Wistar rat cerebral cortex at 10 uM measured after 60 mins by scintillation counting method relative to control
[16] = AUC (infinity) in Sprague-Dawley rat at 1 mg/kg, iv; assay type: ADME, organism-based; set-up: dose 1 mg/kg, route intravenous, time infinity; details: in vivo
COLO 320DM = assay: cells; details: Homo sapiens, 96 h
Description: Antiproliferative activity against human COLO320DM cells assessed as inhibition of cell growth measured after 4 days by CellTiter-Glo assay

in vitro [17] = details: human, liver microsomes
Description: Stability in human liver microsomes assessed as parent compound remaining at 1 uM measured after 30 mins in presence of NADPH by LC-MS/MS analysis

[18] = target: Beta-2 adrenergic receptor (Homo sapiens) (UniProt P07550); assay: Displacement of [3H]CGP-12177 from full-length recombinant human beta2 receptor expressed in CHO cells co-expressing NBR1 at 10 uM measured after 120 mins by scintillation counting method relative to control; assay type: cell-based
[19] = Protein binding in human serum assessed as unbound fraction at 1 uM measured after 24 hrs by LC-MS/MS analysis; assay type: ADME, cell-free

Chain of Poly [ADP-ribose] polymerase 1 (P09874 whole entry): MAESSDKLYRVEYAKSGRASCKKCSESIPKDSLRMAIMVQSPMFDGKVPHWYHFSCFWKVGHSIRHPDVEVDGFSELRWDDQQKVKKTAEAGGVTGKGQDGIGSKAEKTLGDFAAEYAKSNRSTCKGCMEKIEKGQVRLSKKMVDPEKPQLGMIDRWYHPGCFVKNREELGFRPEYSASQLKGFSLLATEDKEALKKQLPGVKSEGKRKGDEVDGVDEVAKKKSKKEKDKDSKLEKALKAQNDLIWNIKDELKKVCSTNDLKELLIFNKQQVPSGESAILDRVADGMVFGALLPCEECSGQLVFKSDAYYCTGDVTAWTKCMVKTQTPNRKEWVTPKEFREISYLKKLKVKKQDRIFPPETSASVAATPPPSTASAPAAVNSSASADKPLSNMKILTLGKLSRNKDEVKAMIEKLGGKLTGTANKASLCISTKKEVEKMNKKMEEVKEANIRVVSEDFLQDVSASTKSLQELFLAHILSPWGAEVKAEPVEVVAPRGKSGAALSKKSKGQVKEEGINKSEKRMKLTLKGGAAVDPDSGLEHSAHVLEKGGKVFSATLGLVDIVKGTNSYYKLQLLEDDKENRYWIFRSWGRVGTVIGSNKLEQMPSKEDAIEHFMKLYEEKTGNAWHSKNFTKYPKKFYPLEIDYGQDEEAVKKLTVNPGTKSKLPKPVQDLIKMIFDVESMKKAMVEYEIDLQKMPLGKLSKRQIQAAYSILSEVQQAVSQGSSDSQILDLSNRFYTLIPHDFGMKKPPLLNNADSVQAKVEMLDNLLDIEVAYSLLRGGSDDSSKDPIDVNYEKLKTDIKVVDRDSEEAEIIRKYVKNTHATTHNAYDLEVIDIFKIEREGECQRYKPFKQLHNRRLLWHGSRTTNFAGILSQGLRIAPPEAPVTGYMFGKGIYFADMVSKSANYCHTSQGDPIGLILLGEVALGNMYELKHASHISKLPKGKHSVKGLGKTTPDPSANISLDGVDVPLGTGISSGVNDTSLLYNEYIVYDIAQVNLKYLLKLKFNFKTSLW
Chain of Poly [ADP-ribose] polymerase 2 (Q9UGN5 whole entry, the tested form may be a part): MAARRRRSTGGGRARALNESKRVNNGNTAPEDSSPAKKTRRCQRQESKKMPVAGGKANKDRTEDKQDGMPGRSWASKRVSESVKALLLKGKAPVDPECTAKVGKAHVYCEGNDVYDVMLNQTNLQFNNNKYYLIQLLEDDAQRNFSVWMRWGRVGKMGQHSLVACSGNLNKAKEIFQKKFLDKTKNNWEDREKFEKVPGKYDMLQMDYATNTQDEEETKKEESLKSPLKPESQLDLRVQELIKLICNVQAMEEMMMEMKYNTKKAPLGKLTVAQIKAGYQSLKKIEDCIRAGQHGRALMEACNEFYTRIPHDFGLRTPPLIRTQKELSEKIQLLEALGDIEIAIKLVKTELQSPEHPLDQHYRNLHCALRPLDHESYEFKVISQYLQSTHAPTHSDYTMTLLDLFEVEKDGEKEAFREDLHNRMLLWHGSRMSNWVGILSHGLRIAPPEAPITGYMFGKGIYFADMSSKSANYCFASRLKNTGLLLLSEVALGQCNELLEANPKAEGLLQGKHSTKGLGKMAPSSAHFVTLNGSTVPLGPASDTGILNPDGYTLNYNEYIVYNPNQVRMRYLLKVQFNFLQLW
Chain of Prostaglandin G/H synthase 1 (Homo sapiens) (P23219 whole entry): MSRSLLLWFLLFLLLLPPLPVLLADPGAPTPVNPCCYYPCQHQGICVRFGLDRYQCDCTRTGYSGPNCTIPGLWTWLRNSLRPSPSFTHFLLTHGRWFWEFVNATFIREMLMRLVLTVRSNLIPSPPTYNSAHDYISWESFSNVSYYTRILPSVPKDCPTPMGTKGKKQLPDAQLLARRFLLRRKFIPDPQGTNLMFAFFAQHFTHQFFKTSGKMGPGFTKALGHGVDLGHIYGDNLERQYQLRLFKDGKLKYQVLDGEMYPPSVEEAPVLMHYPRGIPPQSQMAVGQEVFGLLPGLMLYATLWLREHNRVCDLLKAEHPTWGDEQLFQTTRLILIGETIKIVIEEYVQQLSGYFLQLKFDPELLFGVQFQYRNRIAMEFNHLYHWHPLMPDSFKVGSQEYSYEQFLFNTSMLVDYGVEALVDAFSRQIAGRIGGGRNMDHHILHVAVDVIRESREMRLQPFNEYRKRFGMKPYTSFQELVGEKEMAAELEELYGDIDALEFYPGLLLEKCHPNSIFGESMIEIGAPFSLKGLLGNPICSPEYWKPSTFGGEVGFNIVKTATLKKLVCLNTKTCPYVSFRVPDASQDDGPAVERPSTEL
Chain of Beta-1 adrenergic receptor (Homo sapiens) (P08588 whole entry, looked up): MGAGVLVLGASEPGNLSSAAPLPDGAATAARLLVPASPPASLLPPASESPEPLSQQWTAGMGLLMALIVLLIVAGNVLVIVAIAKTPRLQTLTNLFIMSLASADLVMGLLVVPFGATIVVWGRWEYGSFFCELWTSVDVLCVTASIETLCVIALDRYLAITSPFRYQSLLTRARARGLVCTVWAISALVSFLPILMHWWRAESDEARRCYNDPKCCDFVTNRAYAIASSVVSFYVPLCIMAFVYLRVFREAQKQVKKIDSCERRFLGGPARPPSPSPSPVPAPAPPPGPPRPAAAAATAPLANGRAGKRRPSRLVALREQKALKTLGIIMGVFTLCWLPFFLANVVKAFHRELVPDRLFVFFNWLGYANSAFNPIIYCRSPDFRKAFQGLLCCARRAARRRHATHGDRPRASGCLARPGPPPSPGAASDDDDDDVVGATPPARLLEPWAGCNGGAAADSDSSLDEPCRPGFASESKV
Chain of Beta-2 adrenergic receptor (Homo sapiens) (P07550 whole entry, looked up): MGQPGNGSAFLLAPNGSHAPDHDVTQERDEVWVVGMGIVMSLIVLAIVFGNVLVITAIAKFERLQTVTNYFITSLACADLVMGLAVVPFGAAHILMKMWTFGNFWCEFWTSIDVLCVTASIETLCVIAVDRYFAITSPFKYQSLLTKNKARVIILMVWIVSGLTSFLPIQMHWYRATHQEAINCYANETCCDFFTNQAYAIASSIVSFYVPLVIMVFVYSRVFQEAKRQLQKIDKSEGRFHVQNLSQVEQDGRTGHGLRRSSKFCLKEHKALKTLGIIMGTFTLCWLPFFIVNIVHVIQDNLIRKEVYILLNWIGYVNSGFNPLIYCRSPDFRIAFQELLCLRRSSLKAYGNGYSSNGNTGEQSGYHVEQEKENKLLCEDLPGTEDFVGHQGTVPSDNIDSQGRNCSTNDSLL

| SMILES | IC50 [1] [µM] | Cmax [2] [nM] | bioavailability [3] [%] | Tmax [4] [h] | IC50 [5] [µM] | C0 [6] [nM] | Vd [7] [L/kg] | clearance [9] [mL/min/kg] | AUC(0-inf) [11] [µM·h] | IC50 [12] [µM] | fraction unbound at 24 h, 1 µM [13] | remaining at 0.5 h, 1 µM (in vitro [14]) [%] | half-life [15] [h] | AUC(0-inf) [16] [µM·h] | GI50 (COLO 320DM) [µM] | remaining at 0.5 h, 1 µM (in vitro [17]) [%] | fraction unbound at 24 h, 1 µM [19] | further results |
| --- | --- | --- | --- | --- | --- | --- | --- | --- | --- | --- | --- | --- | --- | --- | --- | --- | --- | --- |
| O=c1[nH]c(N2CCC3(CC2)CN(CCO)c2cc(F)cc(F)c23)nc2c1CCCC2 | 2.72 | 2280 | 59.8 | 0.25 | 20 to 100 | 9840 | 0.59 | 9 | 7.92 | 19.8 | 0.015 | 18.3 | 3.5 | 4.42 | 1.6 | 5.9 | 0.004 | inhibition [8]: > 20%; inhibition [10]: > 20%; inhibition (Rattus norvegicus): > 20%; inhibition [18]: > 20% |
| COc1ccccc1N1CCN(c2nc3c(c(=O)[nH]2)CCCC3)CC1 | 2.23 | 120 | 59.7 | 0.5 | 20 to 100 | 1000 | 58.9 | 68 | 1.27 | 10.2 | 0.029 | 0 | 13 | 0.72 | 3.2 | 84.1 | 0.043 |  |
